What all share (type): biochemical
Experiment [1] addresses T1, Rat intestinal sucrase (Rattus norvegicus, UniProt P23739).
T1 construct: gene Si; native rat intestinal enzyme; sucrase (C-terminal) subunit of sucrase-isomaltase
As to the kind of experiment: enzyme inhibition assay. The conditions noted are these: read-out: IC50 ^a / MON-6d-DGJ. An excerpt: enzyme inhibition assay on Rat intestinal sucrase

In experiment [2] the target is T2, Rat intestinal isomaltase (Rattus norvegicus, UniProt P23739).
T2 construct: gene Si; native rat intestinal enzyme; isomaltase (N-terminal) subunit of sucrase-isomaltase
As to the kind of experiment: enzyme inhibition assay. The conditions noted are these: read-out: IC50 ^a / MON-6d-DGJ. An excerpt: enzyme inhibition assay on Rat intestinal isomaltase

In experiment [3] the target is T3, Human lysosome (α-glucosidase) (Homo sapiens, UniProt P10253).
T3 construct: gene GAA
As to the kind of experiment: enzyme inhibition assay. The conditions noted are these: read-out: IC50 ^a / MON-6d-DGJ. An excerpt:
enzyme inhibition assay on Human lysosome (α-glucosidase)

For experiment [4], the target named is T4, Human lysosome (α-galactosidase) (Homo sapiens, UniProt P06280).
T4 construct: gene GLA
T4 sequence (P06280 32-429): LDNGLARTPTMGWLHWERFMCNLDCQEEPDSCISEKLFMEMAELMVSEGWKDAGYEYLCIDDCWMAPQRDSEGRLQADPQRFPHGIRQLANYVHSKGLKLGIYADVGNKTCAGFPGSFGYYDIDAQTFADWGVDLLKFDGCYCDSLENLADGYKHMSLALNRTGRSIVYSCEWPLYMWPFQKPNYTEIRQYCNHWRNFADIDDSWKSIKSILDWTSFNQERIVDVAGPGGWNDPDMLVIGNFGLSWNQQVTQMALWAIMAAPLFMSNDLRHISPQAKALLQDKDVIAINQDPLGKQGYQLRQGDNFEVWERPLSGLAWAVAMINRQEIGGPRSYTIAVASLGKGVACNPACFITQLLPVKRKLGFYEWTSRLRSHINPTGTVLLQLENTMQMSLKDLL
As to the kind of experiment: enzyme inhibition assay. The conditions noted are these: read-out: IC50 ^a / MON-6d-DGJ. An excerpt: enzyme inhibition assay on Human lysosome (α-galactosidase)

Experiment [5] has as its target T5, Mouse ER α-glucosidase II (Mus musculus, UniProt Q8BHN3).
T5 construct: gene Ganab; with Glucosidase 2 subunit beta
T5 sequence (Q8BHN3 33-944): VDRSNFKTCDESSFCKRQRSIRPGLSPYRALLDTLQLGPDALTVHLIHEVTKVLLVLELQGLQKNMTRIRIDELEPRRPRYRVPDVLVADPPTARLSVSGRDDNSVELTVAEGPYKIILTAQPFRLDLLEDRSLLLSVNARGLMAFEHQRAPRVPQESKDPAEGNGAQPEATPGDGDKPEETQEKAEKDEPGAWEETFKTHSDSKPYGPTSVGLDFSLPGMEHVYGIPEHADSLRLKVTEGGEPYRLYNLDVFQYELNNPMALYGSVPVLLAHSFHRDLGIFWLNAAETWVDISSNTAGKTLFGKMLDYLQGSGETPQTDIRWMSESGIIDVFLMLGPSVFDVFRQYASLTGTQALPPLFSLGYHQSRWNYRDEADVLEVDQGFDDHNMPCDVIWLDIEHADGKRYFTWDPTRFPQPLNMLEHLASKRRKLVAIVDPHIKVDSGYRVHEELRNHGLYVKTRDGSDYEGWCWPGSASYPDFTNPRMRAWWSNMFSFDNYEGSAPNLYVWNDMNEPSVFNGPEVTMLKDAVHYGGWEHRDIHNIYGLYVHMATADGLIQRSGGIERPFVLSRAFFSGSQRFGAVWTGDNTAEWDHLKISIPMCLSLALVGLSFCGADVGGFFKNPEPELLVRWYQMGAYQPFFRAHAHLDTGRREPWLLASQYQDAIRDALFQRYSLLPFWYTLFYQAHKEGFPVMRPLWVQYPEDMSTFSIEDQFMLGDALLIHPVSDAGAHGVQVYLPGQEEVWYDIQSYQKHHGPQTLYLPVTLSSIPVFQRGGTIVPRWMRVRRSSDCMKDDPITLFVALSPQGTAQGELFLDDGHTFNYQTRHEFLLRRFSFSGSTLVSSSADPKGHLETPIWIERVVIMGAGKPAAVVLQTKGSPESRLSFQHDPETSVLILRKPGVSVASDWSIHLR
T5 sequence (O08795 15-521 partner): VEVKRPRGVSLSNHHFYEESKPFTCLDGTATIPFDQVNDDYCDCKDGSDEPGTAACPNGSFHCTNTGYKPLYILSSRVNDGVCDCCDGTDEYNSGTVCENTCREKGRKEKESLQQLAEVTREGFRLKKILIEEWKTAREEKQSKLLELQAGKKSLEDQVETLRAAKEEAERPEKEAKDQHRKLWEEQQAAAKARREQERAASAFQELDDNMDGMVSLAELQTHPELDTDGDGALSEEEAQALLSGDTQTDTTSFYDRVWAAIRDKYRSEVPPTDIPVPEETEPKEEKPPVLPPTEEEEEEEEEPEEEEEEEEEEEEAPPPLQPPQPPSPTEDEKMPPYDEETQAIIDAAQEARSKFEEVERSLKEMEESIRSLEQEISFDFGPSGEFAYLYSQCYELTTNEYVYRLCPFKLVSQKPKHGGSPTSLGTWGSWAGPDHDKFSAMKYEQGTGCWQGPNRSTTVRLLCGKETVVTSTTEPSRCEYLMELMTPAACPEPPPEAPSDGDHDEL
As to the kind of experiment: enzyme inhibition assay, purified enzyme. The conditions noted are these: read-out: IC50 ^a / MON-6d-DGJ. The text has this: enzyme inhibition assay, purified enzyme on Mouse ER α-glucosidase II

The target of experiment [6] is T6, Rat intestinal maltase.
T6 construct: gene Mgam; native rat intestinal enzyme activity; maltase may be maltase-glucoamylase and/or sucrase-isomaltase
As to the kind of experiment: enzyme inhibition assay. The conditions noted are these: IC50 not reached up to maximal dose; read-out: IC50 ^a / MON-6d-DGJ. The text has this:
enzyme inhibition assay on Rat intestinal maltase

Experiment [7] deals with T7, Mouse ER α-glucosidase I (Mus musculus, UniProt Q80UM7).
T7 construct: gene Mogs
T7 sequence (Q80UM7 1-834): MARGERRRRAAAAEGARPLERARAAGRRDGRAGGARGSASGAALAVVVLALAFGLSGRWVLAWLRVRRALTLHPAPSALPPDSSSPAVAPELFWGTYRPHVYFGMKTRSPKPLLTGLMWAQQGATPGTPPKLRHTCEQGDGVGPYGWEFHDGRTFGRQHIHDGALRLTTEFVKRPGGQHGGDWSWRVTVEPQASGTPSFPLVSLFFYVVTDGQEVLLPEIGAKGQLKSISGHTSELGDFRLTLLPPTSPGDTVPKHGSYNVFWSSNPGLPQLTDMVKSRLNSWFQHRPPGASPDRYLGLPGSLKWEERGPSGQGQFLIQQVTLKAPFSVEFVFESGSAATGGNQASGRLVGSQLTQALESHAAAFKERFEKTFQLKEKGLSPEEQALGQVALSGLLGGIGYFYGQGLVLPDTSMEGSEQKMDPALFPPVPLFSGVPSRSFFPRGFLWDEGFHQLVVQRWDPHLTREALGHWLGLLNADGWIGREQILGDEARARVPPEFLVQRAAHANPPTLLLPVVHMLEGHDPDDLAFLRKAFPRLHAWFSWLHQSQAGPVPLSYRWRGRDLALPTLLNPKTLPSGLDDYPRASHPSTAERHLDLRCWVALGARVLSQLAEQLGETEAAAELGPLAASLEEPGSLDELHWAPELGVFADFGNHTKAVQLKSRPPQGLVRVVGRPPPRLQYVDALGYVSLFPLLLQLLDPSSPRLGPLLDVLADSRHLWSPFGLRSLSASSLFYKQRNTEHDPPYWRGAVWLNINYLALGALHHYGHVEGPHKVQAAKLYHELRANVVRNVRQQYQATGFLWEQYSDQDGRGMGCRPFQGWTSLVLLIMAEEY
As to the kind of experiment: enzyme inhibition assay, purified enzyme. The conditions noted are these: read-out: IC50 ^a / MON-6d-DGJ. The text has this:
enzyme inhibition assay, purified enzyme on Mouse ER α-glucosidase I

Experiment [8] has as its target T8, ceramide glucosyltransferase (HL60 glucosyltransferase) (Homo sapiens, UniProt Q16739).
T8 construct: gene UGCG; native enzyme isolated from human promyelocytic HL60 cells
T8 sequence (Q16739 1-394): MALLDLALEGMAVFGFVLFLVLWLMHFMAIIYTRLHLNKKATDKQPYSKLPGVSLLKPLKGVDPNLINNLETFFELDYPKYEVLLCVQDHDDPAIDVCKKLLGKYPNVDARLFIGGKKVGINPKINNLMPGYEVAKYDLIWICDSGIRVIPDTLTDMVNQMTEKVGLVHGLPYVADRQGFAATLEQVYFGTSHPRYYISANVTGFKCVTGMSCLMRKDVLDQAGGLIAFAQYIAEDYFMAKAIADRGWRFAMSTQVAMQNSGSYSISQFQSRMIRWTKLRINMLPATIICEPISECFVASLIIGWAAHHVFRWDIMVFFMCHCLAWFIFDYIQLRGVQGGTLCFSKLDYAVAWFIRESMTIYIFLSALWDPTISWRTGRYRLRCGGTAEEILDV
As to the kind of experiment: enzyme inhibition assay, enzyme isolated from HL60 cells. The conditions noted are these: read-out: IC50 ^a / MON-6d-DGJ. The text has this: enzyme inhibition assay, enzyme isolated from HL60 cells on ceramide glucosyltransferase (HL60 glucosyltransferase)

T2 sequence (P23739 1-1013 limits assumed): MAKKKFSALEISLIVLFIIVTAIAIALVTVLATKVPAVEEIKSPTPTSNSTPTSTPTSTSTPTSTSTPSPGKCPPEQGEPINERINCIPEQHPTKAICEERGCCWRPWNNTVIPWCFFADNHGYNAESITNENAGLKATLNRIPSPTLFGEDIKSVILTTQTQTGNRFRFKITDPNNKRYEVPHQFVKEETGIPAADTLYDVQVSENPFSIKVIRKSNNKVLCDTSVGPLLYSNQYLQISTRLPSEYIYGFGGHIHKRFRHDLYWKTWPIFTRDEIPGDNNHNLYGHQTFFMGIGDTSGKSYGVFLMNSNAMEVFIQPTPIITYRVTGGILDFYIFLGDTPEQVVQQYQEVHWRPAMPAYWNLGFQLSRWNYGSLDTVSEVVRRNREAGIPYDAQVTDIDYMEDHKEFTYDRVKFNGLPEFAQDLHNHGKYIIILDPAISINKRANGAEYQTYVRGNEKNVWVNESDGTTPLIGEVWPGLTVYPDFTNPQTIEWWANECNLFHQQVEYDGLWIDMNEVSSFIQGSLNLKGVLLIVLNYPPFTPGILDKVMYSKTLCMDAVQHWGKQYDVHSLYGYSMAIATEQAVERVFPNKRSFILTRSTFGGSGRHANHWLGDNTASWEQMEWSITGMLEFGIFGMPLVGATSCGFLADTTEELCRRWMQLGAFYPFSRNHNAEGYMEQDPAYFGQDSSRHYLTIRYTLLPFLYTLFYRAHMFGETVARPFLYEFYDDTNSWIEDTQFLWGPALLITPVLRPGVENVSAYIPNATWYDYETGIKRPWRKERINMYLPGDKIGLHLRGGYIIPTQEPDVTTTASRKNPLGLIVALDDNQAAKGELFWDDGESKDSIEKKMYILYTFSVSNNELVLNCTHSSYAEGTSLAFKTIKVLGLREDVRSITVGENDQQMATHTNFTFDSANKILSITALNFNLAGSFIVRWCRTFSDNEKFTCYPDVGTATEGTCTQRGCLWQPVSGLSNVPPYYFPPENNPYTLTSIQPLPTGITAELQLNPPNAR
T1 sequence (P23739 1014-1841 limits assumed): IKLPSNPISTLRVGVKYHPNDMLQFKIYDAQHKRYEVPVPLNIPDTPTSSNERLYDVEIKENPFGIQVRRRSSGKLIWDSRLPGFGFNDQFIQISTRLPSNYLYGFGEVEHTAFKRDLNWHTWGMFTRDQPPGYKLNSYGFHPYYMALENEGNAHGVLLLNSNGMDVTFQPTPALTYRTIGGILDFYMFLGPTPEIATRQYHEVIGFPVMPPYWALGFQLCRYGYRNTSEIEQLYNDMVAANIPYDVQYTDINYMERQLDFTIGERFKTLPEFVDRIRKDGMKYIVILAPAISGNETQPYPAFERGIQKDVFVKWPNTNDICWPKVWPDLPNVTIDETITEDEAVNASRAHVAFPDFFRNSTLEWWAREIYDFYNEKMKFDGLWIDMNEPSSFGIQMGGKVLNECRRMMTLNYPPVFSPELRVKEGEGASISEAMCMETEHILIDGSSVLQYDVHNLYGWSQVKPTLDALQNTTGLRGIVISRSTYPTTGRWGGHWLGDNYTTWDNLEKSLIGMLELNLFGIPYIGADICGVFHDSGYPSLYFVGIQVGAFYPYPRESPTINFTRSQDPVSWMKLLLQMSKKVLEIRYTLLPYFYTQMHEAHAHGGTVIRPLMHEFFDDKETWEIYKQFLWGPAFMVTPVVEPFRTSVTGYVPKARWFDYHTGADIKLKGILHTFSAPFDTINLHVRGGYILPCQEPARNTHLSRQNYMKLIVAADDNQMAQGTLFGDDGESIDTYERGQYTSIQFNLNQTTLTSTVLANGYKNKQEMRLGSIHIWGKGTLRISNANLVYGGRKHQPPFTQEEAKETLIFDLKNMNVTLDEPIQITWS

In the case of `COCCCCCCCCCN1C[C@H](O)[C@@H](O)[C@@H](O)[C@H]1C` [MON-6d-DGJ, N-(9′-methoxynonyl)-1,6-dideoxygalactonojirimycin], the IC50 in experiment [1] was over 1.05 mM; in experiment [2], over 1.05 mM; in experiment [3] it was over 1.05 mM; in experiment [4], 0.256 mM; in experiment [5] it was over 1.05 mM; in experiment [6], over 1.05 mM. The IC50 in experiment [7] was over 1.05 mM; in experiment [8], 0.0883 mM.

Values taken from publication PMC5064435, “Inhibition of endoplasmic reticulum glucosidases is required for in vitro and in vivo dengue antiviral activity by the iminosugar UV-4” (Antiviral Research, 2016).
